# Patent US10662218B2, “Analogs of celastrol” (ERX Pharmaceuticals, Inc., priority 2015, dated 2020)
# Where “and” joins values, the source holds several entries; their conditions need not be identical. Equal entries are not always repeated. Entries after “also recorded” stand apart in the source; their conditions may differ. Where two headings read alike, the source gives them in different places.
# Key:
# [1] = test system: C57BL/6 Diet Induced Obese (DIO) mice; test: Oral (P.O.) administration study in DIO mice: in vivo activity, body weights; design: species or system mouse; conditions: for Individual Body Weight, PRED 11: pre-dose phase day 11 (baseline); for Individual Body Weight, PRED 12: pre-dose phase day 12 (baseline); for Individual Body Weight, PRED 13: pre-dose phase day 13 (baseline); for Individual Body Weight, PRED 14: pre-dose phase day 14 (baseline); for Individual Body Weight, DSNG 1: dosing phase day 1; for Individual Body Weight, DSNG 2: dosing phase day 2; for Individual Body Weight: individual male animals; for Body weight, Mean / change in vivo at 2 mg/kg: male; for change in vivo at 2 mg/kg: Mus musculus, po, read-out: Body weight, %-Diff
# How it was run: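 Male C57BL/6 DIO mice (21-22 weeks, 29.8-40.1 g) were gavage-acclimated with vehicle, then dosed orally once daily for 10 days at 2 mL/kg. Body weight was recorded daily before dosing. Cumulative change and AUC were analysed by one-way ANOVA with Dunnett's test.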
# [2] = test system: C57BL/6 Diet Induced Obese (DIO) mice; test: Oral (P.O.) administration study in DIO mice: food consumption; format: in vivo, mouse; conditions: 2 mg/kg oral gavage once daily for 10 days, compared with controls
# Protocol: (§1) Dose formulations were administered by oral gavage once daily for 10 days at a dose volume of 2 mL/kg. Doses were based on the most recently recorded scheduled body weight.
# A quantitative assessment of food consumption was recorded daily on Days 11 through 14 of the predose phase and daily prior to dosing during the dosing phase.
# (§2) Descriptive statistics (n, mean, standard error of the mean, standard deviation) were completed. Additionally, one-way analysis of variance followed by Dunnett's post-hoc test were performed on body weight (cumulative body weight change), glucose (glucose percent change), and food consumption (cumulative food consumption). Area under the curve (for body weight, cumulative body weight change, daily body weight change, and food consumption) was computed for treatment groups. An appropriate comparison test, such as one-way analysis of variance and Dunnett's, was performed on the group means for the area under the curve computations. Any additional statistical analysis and interpretation of the results were the responsibility of the sponsor.
# [3] = test system: C57BL/6 Diet Induced Obese (DIO) mice; test: Oral (P.O.) administration study in DIO mice: blood glucose level after 6 hours of fasting; format: in vivo, mouse; conditions: 2 mg/kg oral gavage once daily for 10 days, compared with controls
# Protocol: as §1
# Blood for blood glucose was collected from all animals via tail clip on Day 14 of the predose phase, and Day 11 of the dosing phase after 6 hours of fasting. A drop of blood from each animal was placed onto two different Accu-Chek® Aviva glucometers to assess glucose values. A third value was taken, if necessary.
# as §2
# [4] = Compound solubility in PBS (pH 7.4), LC-MS/MS; conditions: PBS (pH 7.4), pH 7.4, aqueous buffer, kinetic from dmso stock
# Protocol: • Test concentration: 100 μM (1% of DMSO) • Test systems: PBS (pH 7.4) • Incubation condition: shaken (1000 rpm) for 1 h at room temperature • Sample size: Duplicates (n=2) • Bioanalytical method: LC-MS/MS
# [5] = test system: C57BL/6 Diet Induced Obese (DIO) mice; conditions: I.P. administration
# Protocol: The following test compounds were studied to determine any anti-obesity effect when administered to rodents. First, test compounds were formulated in 50, 100, 200, 400, 500, 1000 and 2000 μg/kg doses and administered once daily in a dose volume of 2 mL/kg i.p. for multiple days. Test compounds were compared to administration of vehicle to mice. The experiment consisted of two phases: a pre-dosing phase and a dosing phase. Weight of the animals in each testing group was measured daily. Fluid samples were taken as well.
# Descriptive statistics (n, mean, standard error of the mean, standard deviation) were completed. Additionally, one way analysis of variance followed by Dunnett's post-hoc test was performed on body weight (cumulative body weight change), glucose (glucose percent change), and food consumption (cumulative food consumption). Area under the curve (for body weight, cumulative body weight change, daily body weight change, and food consumption) was computed for treatment groups. An appropriate comparison test, such as one-way analysis of variance and Dunnett's, was performed on the group means for the area under the curve computations.
# [6] = test system: C57BL/6 Diet Induced Obese (DIO) mice; test: Oral (P.O.) administration study in DIO mice: animal fate (mortality) and clinical observations; conditions: mouse, in vivo, 2 mg/kg
# How it was run: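 Male C57BL/6 DIO mice received 2 mg/kg of each compound by oral gavage once daily for 10 days; vehicle was 1% methyl cellulose in citric acid/phosphate buffer. Mortality and clinical signs recorded alongside body weight, food intake and blood glucose; animals sacrificed Day 11.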
# [7] = 2 mg/kg oral gavage once daily for 10 days, compared with controls
# [8] = individual male DIO mouse of the 2 mg/kg group
# [9] = individual male DIO mouse, 2 mg/kg, 2 mg/kg
# [10] = Solubility (μM) Mean, Table 6-B, test concentration 100 μM (1% of DMSO), shaken (1000 rpm) 1 h at room temperature, n = 2
# [11] = individual male DIO mouse, group dosed 2 mg/kg, 2 mg/kg
smiles,measurement,setting,value
"CC1=C(O)C(=O)C=C2C1=CC=C1[C@@]2(C)CC[C@@]2(C)[C@@H]3C[C@](C)(C(=O)O)CC[C@]3(C)CC[C@]12C [ERX1000-4, Celastrol]",area under the curve (AUC) for cumulative body weight change,[1]; [7],statistically significant decreases
same,area under the curve (AUC) for daily body weight change,[1]; [7],statistically significant decreases
same,cumulative body weight change,[1]; [7],statistically significant decreases
same,"Individual Body Weight, PRED 11",[1]; [8],35.9 g and 35.1 g and 37.3 g and 34.5 g and 37.5 g
same,"Individual Body Weight, PRED 12",[1]; [8],35.2 g and 33.5 g and 37.4 g and 35.5 g and 37.3 g
same,"Individual Body Weight, PRED 13",[1]; [8],35.1 g and 32.5 g and 37.7 g and 34.0 g and 36.0 g
same,"Individual Body Weight, PRED 14",[1]; [8],35.5 g and 32.9 g and 37.9 g and 34.6 g and 37.2 g
same,"Individual Body Weight, DSNG 1",[1]; [9],34.6 g and 30.8 g and 37.0 g and 33.5 g and 34.9 g
same,"Individual Body Weight, DSNG 2",[1]; [9],34.4 g and 30.8 g and 36.4 g and 33.5 g and 35.0 g
same,cumulative food intake,[2],statistically significant decreases
same,glucose value percent change,[3],Statistically significant changes; also recorded: statistically significant decreases
CC1=C(O)C(=O)C=C2C1=CC=C1[C@@]2(C)CC[C@@]2(C)[C@@H]3C[C@](C)(C#N)CC[C@]3(C)CC[C@]12C [ERX1015],solubility at 1 h,[4]; [10],0.79 µM
same,solubility at 1 h,"[4]; Solubility (μM), Table 6-D",0.791 µM
same,activity,[5]; dose 100 μg/kg,++
COC1=C(C)C2=CC=C3[C@@](C)(CC[C@@]4(C)[C@@H]5C[C@](C)(C(N)=O)CC[C@]5(C)CC[C@]34C)C2=CC1=O [ERX1031],solubility at 1 h,[4]; [10],8.56 µM
same,solubility at 1 h,"[4]; Solubility (μM), Table 6-D",8.56 µM
same,activity,[5]; dose 100 μg/kg,−
same,activity,[5]; dose 400 μg/kg,++
CCNC(=O)OC1=C(C)C2=CC=C3[C@@](C)(CC[C@@]4(C)[C@@H]5C[C@](C)(C#N)CC[C@]5(C)CC[C@]34C)C2=CC1=O [ERX1047],solubility at 1 h,[4]; [10],1.13 µM
same,solubility at 1 h,"[4]; Solubility (μM), Table 6-D",1.13 µM
same,activity,[5]; dose 100 μg/kg,−
same,activity,[5]; dose 400 μg/kg,++
CC1=C(O)C(=O)C=C2C1=CC=C1[C@@]2(C)CC[C@@]2(C)[C@@H]3C[C@](C)(N(C)C)CC[C@]3(C)CC[C@]12C [ERX1177],solubility at 1 h,[4]; [10],49.5 µM
same,solubility at 1 h,"[4]; Solubility (μM), Table 6-D",49.5 µM
same,Individual Body Weight,"[1]; 2 mg/kg, Phase Day DSNG 3",31.8 g (2×) and 34.6 g (2×) and 38.2 g
same,Individual Body Weight,"[1]; 2 mg/kg, Phase Day DSNG 4",31.2 g and 30.8 g and 34.8 g and 37.7 g and 34.2 g
same,Individual Body Weight,"[1]; 2 mg/kg, Phase Day DSNG 5",31.3 g and 30.9 g and 34.2 g and 38.0 g and 34.4 g
same,Individual Body Weight,"[1]; 2 mg/kg, Phase Day DSNG 6",31.4 g and 30.1 g and 33.7 g and 38.1 g and 34.4 g
same,Individual Body Weight,"[1]; 2 mg/kg, Phase Day DSNG 7",31.4 g and 29.9 g and 33.7 g and 38.0 g and 34.1 g
same,Individual Body Weight,"[1]; 2 mg/kg, Phase Day DSNG 8",31.0 g and 29.8 g and 33.4 g and 37.8 g and 33.7 g
same,"Body weight, Mean","[1]; DIO mice, 2 mg/kg, phase DSNG, Day 7",33.4 g
same,"Body weight, Mean","[1]; DIO mice, 2 mg/kg, phase DSNG, Day 8",33.1 g
same,"Body weight, Mean","[1]; DIO mice, 2 mg/kg, phase DSNG, Day 9",33.0 g
same,"Body weight, Mean","[1]; DIO mice, 2 mg/kg, phase DSNG, Day 10",33.1 g
same,"Body weight, Mean","[1]; DIO mice, 2 mg/kg, phase DSNG, Day 11",33.0 g
same,"Body weight, Mean","[1]; Day 1, DSNG phase, 2 mg/kg, N=5",34.9 g
same,"Body weight, Mean","[1]; Day 2, DSNG phase, 2 mg/kg, N=5",34.4 g
same,"Body weight, Mean","[1]; Day 3, DSNG phase, 2 mg/kg, N=5",34.2 g
same,"Body weight, Mean","[1]; Day 4, DSNG phase, 2 mg/kg, N=5",33.7 g
same,"Body weight, Mean","[1]; Day 5, DSNG phase, 2 mg/kg, N=5",33.8 g
same,"Body weight, Mean","[1]; Day 6, DSNG phase, 2 mg/kg, N=5",33.5 g
same,change in vivo at 2 mg/kg,"[1]; 24 h, Day 1, DSNG phase, 2 mg/kg, difference of group mean",2%
same,change in vivo at 2 mg/kg,"[1]; 48 h, Day 2, DSNG phase, 2 mg/kg, difference of group mean",0%
same,change in vivo at 2 mg/kg,"[1]; 72 h, Day 3, DSNG phase, 2 mg/kg, difference of group mean",1%
same,change in vivo at 2 mg/kg,"[1]; 96 h, Day 4, DSNG phase, 2 mg/kg, difference of group mean",1%
same,change in vivo at 2 mg/kg,"[1]; 120 h, Day 5, DSNG phase, 2 mg/kg, difference of group mean",0%
same,change in vivo at 2 mg/kg,"[1]; 144 h, Day 6, DSNG phase, 2 mg/kg, difference of group mean",0%
same,change in vivo at 2 mg/kg,"[1]; 168 h, DIO mice, 2 mg/kg, phase DSNG, Day 7, difference of group mean from vehicle group 1",0%
same,change in vivo at 2 mg/kg,"[1]; 192 h, DIO mice, 2 mg/kg, phase DSNG, Day 8, difference of group mean from vehicle group 1",-2%
same,change in vivo at 2 mg/kg,"[1]; 216 h, DIO mice, 2 mg/kg, phase DSNG, Day 9, difference of group mean from vehicle group 1",-1%
same,change in vivo at 2 mg/kg,"[1]; 240 h, DIO mice, 2 mg/kg, phase DSNG, Day 10, difference of group mean from vehicle group 1",-1%
same,change in vivo at 2 mg/kg,"[1]; 264 h, DIO mice, 2 mg/kg, phase DSNG, Day 11, difference of group mean from vehicle group 1",-3%
same,"Individual Body Weight, DSNG 1",[1]; [9],32.0 g and 32.1 g and 35.5 g and 40.1 g and 35.0 g
same,"Individual Body Weight, DSNG 2",[1]; [9],32.2 g and 31.9 g and 34.5 g and 38.4 g and 34.9 g
same,"Individual Body Weight, PRED 11",[1]; [11],33.8 g and 33.3 g and 37.1 g and 41.9 g and 35.5 g
same,"Individual Body Weight, PRED 12",[1]; [11],32.5 g and 33.7 g and 36.7 g and 41.6 g and 36.2 g
same,"Individual Body Weight, PRED 13",[1]; [11],31.8 g and 32.6 g and 35.6 g and 42.2 g and 36.1 g
same,"Individual Body Weight, PRED 14",[1]; [11],31.7 g and 33.1 g and 36.4 g and 41.7 g and 36.2 g
same,Individual Animal Fate: Fate Status,[6],Scheduled Sacrifice
